According to US20250057930A1, “ANAPLASTIC LYMPHOMA KINASE (ALK) CANCER VACCINES AND METHODS OF USE THEREOF” (The Children's Medical Center Corporation, priority 2022, published 2025):
pIC50: −log10 of the molar value.

Assays:
[1] = system: Ad-EA mice (mEml4-Alk rearranged lung tumor); test: Lung tumor volume by MRI and survival in Ad-EA mice; assay type: in vivo, mouse
From the text: (§2) EML4-ALK transgenic (Tg) mice, which express the human EML4-ALK (E13;A20, human variant 1) driven by the SP-C promoter (henceforth referred as hEML4-ALK Tg mice), and BALB/c mice infected intratracheally with adenovirus carrying the CRISPR/Cas9 system to induce in vivo the Eml4-Alk rearrangement (E14;A20, mouse variant 1) (henceforth referred as Ad-EA mice). […] In these models, magnetic resonance imaging (MRI) (FIG. 1B) allowed precise cohort stratification and tumor follow-up.
Anatomical T2-weighted coronal images were acquired with a respiratory-triggered multislice fast spin echo RARE sequence (TR=4 s, TE=4.5 ms, Rare Factor (RF)=16, FOV=30 mm^2, Matrix=256×256, slices=16-20, slice thickness=1 mm, 2 averages, providing an in-plane spatial resolution of 117 μm) with a 7T MRI (Bruker Advance III, Ettlingen, Germany) scanner equipped with a quadrature 1H coil. Animals were anesthetized by intraperitoneal injection of a combination of ROMPUN® (Bayer, 5 mg/kg) and ZOLETIL 100® (Laboratoires Virbac, 20 mg/kg); breathing was monitored during acquisition of the MR images with a respiratory sensor (SA Instruments, Inc.). Tumor volumes and numbers of masses calculations were performed by manual segmentation (slice by slice contouring) with ITK-SNAP software (www.itksnap.org).
Syngeneic mice models transplanted with tumor cells were treated intraperitoneally with 200 μg of anti-PD-1 and/or anti-CTLA-4 (clone 9D9, Bioxcell), on days 3, 6, and 9 post-tumor transplantation (3 injections/per mouse).

[2] = system: mEml4-Alk cell lines; test: Cell viability assay (CellTiter-Glo) in mEml4-Alk cell lines; assay type: cell-based; conditions: Mus musculus, mEml4-Alk^1, 72 h
Experimental: (§1) “[…]” is disclosed as SEQ ID NO: 22. […] “[…]” is disclosed as SEQ ID NO: 22.
Cell viability assay was performed in all immortalized mouse cell lines by using CellTiter-Glo (Promega, USA) according to the manufacturer's instructions. […] After 72 h, CellTiter-Glo reagent was added to each well and luminescence output data were taken by GloMax-Multi Detection System (Promega, USA). The correspondent IC50 value for each ALK inhibitor was calculated with GraphPad Prism 9 software (GraphPad, USA).

[3] = system: mEml4-Alk cell line tumors; test: mEml4-Alk syngeneic tumors in BALB/c mice; assay type: in vivo; conditions: mEml4-Alk cell lines in syngeneic BALB/c mice
Experimental: as §1
To determine whether these differences in anaplastic lymphoma kinase (ALK)-specific CD8^+ T-cell responses translated into a different anti-tumor activity, mice were treated with either flank or lung tumors with immune checkpoint inhibitors (ICIs). […] Tumor-free mice were then rechallenged to assess ALK-specific CD8^+ T-cell memory response. […] In contrast to flank tumors, ICI was ineffective against Eml4-Alk^[…]-1 (“[…]” disclosed as SEQ ID NO: 22) lung tumors as measured by overall survival (FIG. 3I), and lung tumor histology (FIG. 3J). Systemic ALK-specific CD8^+ T-cell response was analyzed in mice bearing flank or lung tumors. […] It was concluded that the robustness of the spontaneous ALK-specific CD8^+ T-cell response depended on tumor localization and determined the response to immune checkpoint inhibitors (ICIs).
For syngeneic subcutaneous tumor transplantation, a total of 1×10^6 immortalized mouse cells were subcutaneously inoculated into the right dorsal flanks of 8-12 week-old BALB/c mice in 100 μL of phosphate-buffered saline (PBS). […] Tumor volume was measured by caliper measurements every 3 days in a blinded fashion and calculated according to the following equation: H. W^2/2. […]

[4] = system: ALK-rearranged (ALK^+) NSCLC; conditions: patients with resistance to earlier ALK TKIs; cited from earlier work
[5] = system: hEML4-ALK Tg mice (ALK^+ lung tumors); test: Lung tumor volume by MRI and survival in hEML4-ALK Tg mice; conditions: crizotinib 40 mg/kg or lorlatinib 2 mg/kg, MRI
From the text: as §2
Anatomical T2-weighted coronal images were acquired with a respiratory-triggered multislice fast spin echo RARE sequence (TR=4 s, TE=4.5 ms, Rare Factor (RF)=16, FOV=30 mm^2, Matrix=256×256, slices=16-20, slice thickness=1 mm, 2 averages, providing an in-plane spatial resolution of 117 μm) with a 7T MRI (Bruker Advance III, Ettlingen, Germany) scanner equipped with a quadrature 1H coil. Animals were anesthetized by intraperitoneal injection of a combination of ROMPUN® (Bayer, 5 mg/kg) and ZOLETIL 100® (Laboratoires Virbac, 20 mg/kg); breathing was monitored during acquisition of the MR images with a respiratory sensor (SA Instruments, Inc.). Tumor volumes and numbers of masses calculations were performed by manual segmentation (slice by slice contouring) with ITK-SNAP software (www.itksnap.org). […]

[6] = system: H2-Dd expression; test: H2-Dd surface expression on MHC-I^low lung tumor escaper cell lines (flow cytometry); assay type: cell-based, mouse; conditions: H2-Dd-downregulated cell lines; ADU-S100 50 μM, 24 h
Experimental: To uncover the mechanisms that would explain this resistance to treatment, ex vivo escaped tumors were isolated from each treatment group. […] To understand whether the observed H2-Dd downregulation was sufficient to impair tumor rejection, tumor cells with high H2-Dd isolated from untreated mice or tumor cells with low H2-Dd isolated from ALK vaccinated mice and treated with ICI were injected. Treatment with ICI induced rejection of tumors with high H2-Dd expression (FIGS. 6D-6E), consistent with previous experiments (FIG. 3E), but not of escaped tumors with low H2-Dd expression (FIGS. 6F-6G). Finally, it was asked whether H2-Dd expression could be restored by Stimulator of IFN genes (STING) signaling that can increase MHC-I expression in other models of lung cancer.
Allophycocyanin (APC)-conjugates H-2D^d-[…] (SEQ ID NO: 22) Dextramer reagents were obtained from Immudex (Immudex, Denmark). […] After washing step, cells were ready to be acquired. When referred, also PD-1 (clone RMP1-30; BV421-PD-1, BD Pharmingen™, USA) expression was evaluated together with dextramer staining, being added together with FITC-CD8. H2-Dd MHC-I expression was measured on relapsed tumors after treatment. […] All cells were acquired in a BD Celesta flow cytometer (BD Bioscience, USA) and analyzed by using the FlowJo software (FlowJo LCC, USA). […]

In the case of `C[C@H]1Oc2cc(cnc2N)-c2c(nn(C)c2C#N)CN(C)C(=O)c2ccc(F)cc21` [lorlatinib], the “tumor response at the end of treatment” value ([1]; crizotinib 40 mg/kg or lorlatinib 2 mg/kg, MRI) was “almost complete regression of tumors”, the “tumor response by MRI, prolonged treatment” value ([1]; lorlatinib up to 8 weeks, tumors relapsed upon suspension) was “complete remission by MRI” and the pIC50 [2] was 8.93. For the same compound, the “tumor sensitivity in vivo” value [3] was “marked sensitivity”, the average disease control [4] was 7 months and the “tumor response at the end of treatment” value [5] was “almost complete regression of tumors”.
In the case of `Nc1ncnc2c1ncn2[C@@H]1O[C@@H]2CO[P@](=O)(S)O[C@@H]3[C@H](O)[C@@H](CO[P@@](=O)(S)O[C@H]2[C@H]1O)O[C@H]3n1cnc2c(N)ncnc21` [ADU-S100, reference compound], the H2-Dd expression [6] was “strongly upregulating H2-Dd expression”.
